One may read the pIC50 as the negative decadic logarithm of the IC50, by convention in mol/L.

pIC50: −log10 of the molar value. Read-outs that look alike come from different tables or passages of the source. Bounds are passed on as bounds.

Data on 13 compounds can be found in patent publication US11111247B2, “Pyrazolopyrimidine compounds and uses thereof” (Incyte Corporation, priority 2018, dated 2021).

The target in one test is FGFR2 (Homo sapiens, UniProt P21802). The test is described as follows: pFGFR2 Functional Cell HTRF Assay (KATOIII cells). The test is classed as cell-based. As to the method:
To measure phosphorylated Fibroblast Growth Factor Receptor 2 (FGFR2), KATOIII cells (Human Gastric Carcinoma) were purchased from ATCC and maintained in Iscove's with 20% FBS (Gibco/Life Technologies). For the pFGFR2 assay, KATOIII cells were plated overnight in 5% FBS and Iscove's medium at 5×10^4 cells/well into Corning 96-well flat-bottom tissue culture treated plates. The next morning, 50 μl of fresh media with 0.5% FBS was incubated in the presence or absence of a concentration range of test compounds also at 50 μl, for 1 hour at 37° C., 5% CO2. Cell were washed with PBS, and lysed with Cell Signaling Lysis Buffer with standard Protease inhibitors for 45 min at room temperature. 4 μl total of Cis Bio Anti […] together were added to the lysate and mixed well (following directions of the kit). 16 μl was then transferred to 384 well Greiner white plates and stored at 4° C. overnight in the dark. Plates were read on the Pherastar plate reader at 665 nm and 620 nm wavelengths. IC50 determination was performed by fitting the curve of inhibitor percent inhibition versus the log of the inhibitor concentration using the GraphPad Prism 5.0 software. […] NT=Not tested.
(In general: Time-resolved FRET reads energy transfer from a long-lived donor to a nearby acceptor.)

Another test addresses FGFR1 (Homo sapiens, UniProt P11362). Kind of test: pFGFR1 Functional Cell HTRF Assay (BAF3-TEL-FGFR1 cells). It counts as cell-based. As to the method:
(§1) To measure phosphorylated Fibroblast Growth Factor Receptor 1 and 3 (FGF1 and FGFR3), in house stable cell lines BAF3-TEL-FGFR1 or BAF3-TEL-FGFR3 were maintained in RPMI with 10% FBS and 1 μg/ml puromycin (Gibco/Life Technologies). […] The plates were gently shaken (100 rpm) for 2 minutes at room temperature to mix well and incubated for 2 hours in a single layer at 37° C., 5% CO2. 4 μl/well of 1/25 dilution of lysis buffer #3 (Cis Bio) was added with standard Protease inhibitors and shaken at 200 rpm at room temperature for 20 minutes. 4 μl total of the Cis Bio Tb-pFGFR Ab (10 ng) and d2-FGFR3 (1 ng) together were added to the lysate and mixed well. Plates were sealed and incubated at room temperature overnight in the dark. […] IC50 determination was performed by fitting the curve of inhibitor percent inhibition versus the log of the inhibitor concentration using the GraphPad Prism 5.0 software.

A further test addresses FGFR3 (Homo sapiens, UniProt P22607). Kind of test: pFGFR3 Functional Cell HTRF Assay (BAF3-TEL-FGFR3 cells). The test is classed as cell-based. Particulars: 2 hours. As to the method:
as §1

The subject of the next test is RT112 cells. Kind of test: Luminescent Viability Assay (LVA, FGFR3). It counts as cell-based. The conditions noted are these: Homo sapiens, RT-112, 72 h, 3 days, CellTiter-Glo. The method, boiled down: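 RT112 bladder cells grown in RPMI with 10% FBS were exposed to a compound concentration range for 3 days. Viability read by CellTiter-Glo luminescence; IC50 fitted from percent inhibition versus log concentration.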
Background: In ATP-based viability assays light output follows the ATP content of the culture.

Another test has as its target FGFR2 (P) (Homo sapiens (Human), UniProt P21802). The test is described as follows: FGFR Enzymatic Assay, FGFR2 phosphorylated. Particulars: read-out: FGFR2 (P) IC50; phosphorylated enzyme, ATP near or below Km.
In another test the target is FGFR3 (UP) (Homo sapiens (Human), UniProt P22607). The test is described as follows: FGFR Enzymatic Assay, FGFR3 un-phosphorylated. Particulars: read-out: FGFR3 (UP) IC50; un-phosphorylated enzyme, ATP near or below Km.
Sequence of FGFR3 (UP) (P22607 23-806): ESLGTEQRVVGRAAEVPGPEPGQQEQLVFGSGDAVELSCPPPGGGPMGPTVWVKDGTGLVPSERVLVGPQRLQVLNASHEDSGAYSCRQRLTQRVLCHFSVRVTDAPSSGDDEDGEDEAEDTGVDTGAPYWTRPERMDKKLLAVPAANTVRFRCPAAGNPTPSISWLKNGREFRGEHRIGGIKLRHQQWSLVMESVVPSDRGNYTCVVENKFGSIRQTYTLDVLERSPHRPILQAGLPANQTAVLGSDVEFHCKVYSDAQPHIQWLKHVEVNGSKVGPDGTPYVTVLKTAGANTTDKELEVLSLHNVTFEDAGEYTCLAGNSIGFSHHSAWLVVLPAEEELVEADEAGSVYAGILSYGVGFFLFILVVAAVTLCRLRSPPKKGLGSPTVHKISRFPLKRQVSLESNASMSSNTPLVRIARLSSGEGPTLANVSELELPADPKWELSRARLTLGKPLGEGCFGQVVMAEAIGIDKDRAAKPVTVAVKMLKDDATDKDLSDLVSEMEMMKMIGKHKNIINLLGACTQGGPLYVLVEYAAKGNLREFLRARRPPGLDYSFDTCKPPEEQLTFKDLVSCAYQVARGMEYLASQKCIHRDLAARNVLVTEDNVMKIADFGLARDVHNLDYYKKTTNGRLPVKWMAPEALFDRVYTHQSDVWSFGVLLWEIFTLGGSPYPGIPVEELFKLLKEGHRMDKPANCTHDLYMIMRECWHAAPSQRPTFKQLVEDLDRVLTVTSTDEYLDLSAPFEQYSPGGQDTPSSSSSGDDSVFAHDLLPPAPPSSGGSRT
The target in another test is FGFR1 (UP) (Homo sapiens (Human), UniProt P11362). Kind of test: FGFR Enzymatic Assay, FGFR1 un-phosphorylated.
Sequence of FGFR1 (UP) (P11362 22-822): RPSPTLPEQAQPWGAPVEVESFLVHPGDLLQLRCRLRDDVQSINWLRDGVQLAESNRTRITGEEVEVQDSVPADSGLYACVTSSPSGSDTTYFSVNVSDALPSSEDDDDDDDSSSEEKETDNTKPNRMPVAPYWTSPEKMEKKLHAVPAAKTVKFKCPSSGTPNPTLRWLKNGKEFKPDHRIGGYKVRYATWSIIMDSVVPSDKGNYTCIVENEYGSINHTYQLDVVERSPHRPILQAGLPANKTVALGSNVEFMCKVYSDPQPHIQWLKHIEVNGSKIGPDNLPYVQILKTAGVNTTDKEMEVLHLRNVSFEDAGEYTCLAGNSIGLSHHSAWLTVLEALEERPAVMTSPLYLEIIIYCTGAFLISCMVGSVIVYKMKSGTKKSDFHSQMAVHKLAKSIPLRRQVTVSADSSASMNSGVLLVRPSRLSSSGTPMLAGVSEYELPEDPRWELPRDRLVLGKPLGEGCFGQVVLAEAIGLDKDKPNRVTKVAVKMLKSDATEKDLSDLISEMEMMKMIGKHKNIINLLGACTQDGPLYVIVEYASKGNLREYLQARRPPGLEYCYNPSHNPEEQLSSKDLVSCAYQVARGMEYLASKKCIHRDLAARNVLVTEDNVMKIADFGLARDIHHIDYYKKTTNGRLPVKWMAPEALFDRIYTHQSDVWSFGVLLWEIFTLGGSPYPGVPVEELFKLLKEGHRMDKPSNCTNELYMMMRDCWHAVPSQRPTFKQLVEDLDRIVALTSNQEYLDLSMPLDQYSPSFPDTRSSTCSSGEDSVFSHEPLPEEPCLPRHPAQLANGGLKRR
For another test, the target named is ALK2 (aa 147-end) (Homo sapiens (Human), UniProt Q04771). Kind of test: ALK2 HTRF Assay. It counts as biochemical.
Sequence of ALK2 (aa 147-end) (Q04771 147-509): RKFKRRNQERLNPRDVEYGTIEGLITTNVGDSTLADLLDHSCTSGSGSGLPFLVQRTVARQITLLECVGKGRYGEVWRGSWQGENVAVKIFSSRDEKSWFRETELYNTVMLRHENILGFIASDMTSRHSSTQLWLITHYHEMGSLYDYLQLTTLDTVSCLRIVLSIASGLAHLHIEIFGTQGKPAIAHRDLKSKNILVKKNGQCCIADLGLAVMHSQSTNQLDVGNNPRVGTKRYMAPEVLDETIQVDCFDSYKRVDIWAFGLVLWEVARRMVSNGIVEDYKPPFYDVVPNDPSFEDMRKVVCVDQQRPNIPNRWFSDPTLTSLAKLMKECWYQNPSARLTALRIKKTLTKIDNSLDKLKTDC
The target of another test is FGFR2 (UP) (Homo sapiens (Human), UniProt P21802). The test is described as follows: FGFR Enzymatic Assay, FGFR2 un-phosphorylated. The conditions noted are these: read-out: FGFR2 (UP) IC50; un-phosphorylated enzyme, ATP near or below Km.
Sequence of FGFR2 (UP) (P21802 22-821): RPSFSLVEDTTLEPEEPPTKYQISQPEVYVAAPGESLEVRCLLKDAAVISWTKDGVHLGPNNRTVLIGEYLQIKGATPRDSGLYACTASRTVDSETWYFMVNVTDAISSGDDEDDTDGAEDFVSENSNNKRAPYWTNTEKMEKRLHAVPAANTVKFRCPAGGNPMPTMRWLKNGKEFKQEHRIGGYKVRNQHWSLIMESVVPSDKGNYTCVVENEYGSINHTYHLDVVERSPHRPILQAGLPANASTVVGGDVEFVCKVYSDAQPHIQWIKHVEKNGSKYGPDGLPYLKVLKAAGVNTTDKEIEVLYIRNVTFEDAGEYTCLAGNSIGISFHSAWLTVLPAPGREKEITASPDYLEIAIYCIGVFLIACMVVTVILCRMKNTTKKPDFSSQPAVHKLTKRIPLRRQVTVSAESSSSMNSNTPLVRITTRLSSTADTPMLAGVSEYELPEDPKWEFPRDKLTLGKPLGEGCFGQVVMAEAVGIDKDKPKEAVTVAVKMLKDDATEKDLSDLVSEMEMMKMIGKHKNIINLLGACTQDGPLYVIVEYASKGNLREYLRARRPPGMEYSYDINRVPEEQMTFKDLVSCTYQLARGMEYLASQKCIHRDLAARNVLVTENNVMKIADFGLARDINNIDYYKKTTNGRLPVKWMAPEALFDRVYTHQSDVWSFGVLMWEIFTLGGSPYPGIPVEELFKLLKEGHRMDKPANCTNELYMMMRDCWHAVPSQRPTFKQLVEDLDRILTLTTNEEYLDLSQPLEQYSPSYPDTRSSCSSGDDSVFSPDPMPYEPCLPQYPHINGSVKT
Another test deals with ALK2 mutant DIPG cell. Particulars: ALK2 mutant DIPG cells; cited from earlier work.
Where [1] appears, read: read-out: ALK2 100 μM IC50, 100 uM ATP.
The mark [2] stands for this setting: 1 hour, read-out: FGFR2 HTRF IC50.
Where [3] appears, read: read-out: FGFR1 (UP) IC50, un-phosphorylated enzyme, ATP near or below Km.
[4] abbreviates: BAF3-TEL-FGFR1 cells, 2 hours, read-out: FGFR1 HTRF IC50.

Sequence of FGFR1 (P11362 22-822 limits assumed): as the sequence (P11362 22-822) above
Sequence of FGFR2 (P21802 22-821 limits assumed): as the sequence (P21802 22-821) above
Sequence of FGFR2 (P) (P21802 22-821): as above
Sequence of FGFR3 (P22607 23-806 limits assumed): as the sequence (P22607 23-806) above
Protocol for FGFR2 (UP): The inhibitor potency of the exemplified compounds was determined in an enzyme discontinuous assay that measures peptide phosphorylation using FRET measurements to detect product formation. Inhibitors were serially diluted in DMSO and a volume of 0.2 μL was transferred to the wells of a 384-well plate. For the isoforms of FGFR (−1, −2, −3 wild-type and mutant isoforms, −4) including phosphorylated (P) and un-phosphorylated (UP) proteins, a 5 μL/well volume of enzyme diluted in assay buffer (50 mM HEPES, 10 mM MgCl2, 1 mM EGTA, 0.01% Tween-20, 5 mM DTT, pH 7.5) was added to the plate and pre-incubated with inhibitor for 5 to 15 minutes at ambient temperature. Appropriate controls (enzyme blank and enzyme with no inhibitor) were included on the plate. The reaction was initiated by the addition of a 5 μL/well volume containing both biotinylated [sequence] […] The plate was allowed to equilibrate for −10 minutes at ambient temperature before scanning on a PheraStar plate reader (BMG Labtech) instrument.
Either GraphPad prism or XLfit was used to analyze the data. The IC50 values were derived by fitting the data to a four parameter logistic equation producing a sigmoidal dose-response curve with a variable Hill coefficient. Prism equation: Y=Bottom+(Top−Bottom)/(1+10^((LogIC50−X)*Hill slope)); XLfit equation: Y=(A+((B−A)/(1+((X/C)^D)))) where X is the logarithm of inhibitor concentration and Y is the response.

With `CN1CC2CCC(C1=O)N2c1ncc2[nH]nc(-c3cnn(C4CC4)c3)c2n1` (single isomer, unassigned) [Example 66, 8-(3-(1-Cyclopropyl-1H-pyrazol-4-yl)-1H-pyrazolo[4,3-d]pyrimidin-5-yl)-3-methyl-3,8-diazabicyclo[3.2.1]octan-2-one], the pIC50 at FGFR2 (read-out: FGFR2 HTRF IC50, 1 hour) is over 7.00.
Regarding `CC(C)N1CC2CCC(C1=O)N2c1ncc2[nH]nc(-c3cnn(C)c3)c2n1` (centres unmarked) [Example 52, 3-Isopropyl-8-(3-(1-methyl-1H-pyrazol-4-yl)-1H-pyrazolo[4,3-d]pyrimidin-5-yl)-3,8-diazabicyclo[3.2.1]octan-2-one], the pIC50 on FGFR1 was 6.30 to 7.00; on FGFR3 it was 6.30 to 7.00; in the test with RT112 cells, 6.30 to 7.00; at FGFR2 (P) it was over 7.00; on FGFR3 (UP), over 7.00; at FGFR1 (UP), 6.30 to 7.00.
Take `CN1CC2CCC(C1=O)N2c1ncc2[nH]nc(-c3cnn(-c4ccncc4)c3)c2n1` (centres unmarked) [Example 68, 3-Methyl-8-(3-(1-(pyridin-4-yl)-1H-pyrazol-4-yl)-1H-pyrazolo[4,3-d]pyrimidin-5-yl)-3,8-diazabicyclo[3.2.1]octan-2-one]: the pIC50 on ALK2 (aa 147-end) (ALK2 3 μM IC50, 3 uM ATP) is 5.70 to 6.30; on ALK2 (aa 147-end) (setting [1]), under 5.70; on FGFR2 (setting [2]), over 7.00; against FGFR3, over 7.00; in the test on RT112 cells it was 6.30 to 7.00; on FGFR2 (P), over 7.00. Moreover, the pIC50 on FGFR3 (UP), at FGFR1 (UP) (setting [3]) and at FGFR2 (UP) was over 7.00 each time.
Consider `Cn1cc(-c2n[nH]c3cnc(N4C5CCC4c4cn[nH]c4C5)nc23)cn1` (centres unmarked) [Example 45, 9-(3-(1-Methyl-1H-pyrazol-4-yl)-1H-pyrazolo[4,3-d]pyrimidin-5-yl)-1,4,5,6,7,8-hexahydro-4,7-epiminocyclohepta[c]pyrazole], for which the negative logarithm of the IC50 (pIC50) on ALK2 (aa 147-end) (ALK2 3 μM IC50, 3 uM ATP) is 5.70 to 6.30; at ALK2 (aa 147-end) (ALK2 100 μM IC50, 100 uM ATP) it was 5.70 to 6.30; at FGFR1 (setting [4]), 5.70 to 6.30; against FGFR3, 6.30 to 7.00; in the test with RT112 cells it was 6.30 to 7.00; on FGFR2 (P), over 7.00. In addition, the pIC50 at FGFR3 (UP), on FGFR1 (UP) (setting [3]) and at FGFR2 (UP) was over 7.00 in each case.
Regarding `Cc1cc(-n2cc(-c3n[nH]c4cnc(N5C6CCC5C(=O)N(C)C6)nc34)cn2)ccc1C#N` (centres unmarked) [Example 76, 2-Methyl-4-(4-(5-(3-methyl-2-oxo-3,8-diazabicyclo[3.2.1]octan-8-yl)-1H-pyrazolo[4,3-d]pyrimidin-3-yl)-1H-pyrazol-1-yl)benzonitrile], the pIC50 at ALK2 (aa 147-end) (ALK2 3 μM IC50, 3 uM ATP) is 5.70 to 6.30; at ALK2 (aa 147-end) (ALK2 100 μM IC50, 100 uM ATP) it was 5.70 to 6.30; at FGFR2 (setting [2]), over 7.00; against FGFR3 it was over 7.00; in the test on RT112 cells, over 7.00; at FGFR2 (P), over 7.00. In addition, the pIC50 at FGFR3 (UP), at FGFR1 (UP) (setting [3]) and at FGFR2 (UP) was over 7.00 in each case.
On to `Cc1cc(-n2cc(-c3n[nH]c4cnc(N5C6CCC5C(=O)N(C)C6)nc34)cn2)ccn1` (centres unmarked) [Example 71, 3-Methyl-8-(3-(1-(2-methylpyridin-4-yl)-1H-pyrazol-4-yl)-1H-pyrazolo[4,3-d]pyrimidin-5-yl)-3,8-diazabicyclo[3.2.1]octan-2-one], for which the pIC50 was 5.70 to 6.30 against ALK2 (aa 147-end) (ALK2 3 μM IC50, 3 uM ATP); 5.70 to 6.30 at ALK2 (aa 147-end) (ALK2 100 μM IC50, 100 uM ATP); over 7.00 on FGFR2 (setting [2]); over 7.00 against FGFR3; over 7.00 in the test on RT112 cells; over 7.00 at FGFR2 (P). Also, the pIC50 at FGFR3 (UP) and at FGFR1 (UP) (setting [3]) was over 7.00 throughout.
Take `CN1CC2CCC(C1=O)N2c1ncc2[nH]nc(-c3cnn(C4CCC4)c3)c2n1` (single isomer, unassigned) [Example 64, 8-(3-(1-Cyclobutyl-1H-pyrazol-4-yl)-1H-pyrazolo[4,3-d]pyrimidin-5-yl)-3-methyl-3,8-diazabicyclo[3.2.1]octan-2-one]: the pIC50 against ALK2 (aa 147-end) (ALK2 3 μM IC50, 3 uM ATP) was 6.30 to 7.00; on ALK2 (aa 147-end) (ALK2 100 μM IC50, 100 uM ATP) it was 5.70 to 6.30; at FGFR2 (setting [2]) it was over 7.00; at FGFR2 (P), over 7.00; at FGFR2 (UP), over 7.00.
For `CNC(=O)c1ccc(-n2cc(-c3n[nH]c4cnc(N5C6CCC5C(=O)N(C)C6)nc34)cn2)cc1F` (centres unmarked) [Example 81, 2-Fluoro-N-methyl-4-(4-(5-(3-methyl-2-oxo-3,8-diazabicyclo[3.2.1]octan-8-yl)-1H-pyrazolo[4,3-d]pyrimidin-3-yl)-1H-pyrazol-1-yl)benzamide], the pIC50 was 5.70 to 6.30 on ALK2 (aa 147-end) (ALK2 3 μM IC50, 3 uM ATP); 5.70 to 6.30 at ALK2 (aa 147-end) (ALK2 100 μM IC50, 100 uM ATP); over 7.00 on FGFR2 (setting [2]); over 7.00 against FGFR3; over 7.00 with RT112 cells; over 7.00 on FGFR2 (P). The pIC50 on FGFR3 (UP) and on FGFR1 (UP) (setting [3]) was over 7.00 each time.
Take `CCN1CC2CCC(C1=O)N2c1ncc2[nH]nc(-c3cnn(C)c3)c2n1` (centres unmarked) [Example 50, 3-Ethyl-8-(3-(1-methyl-1H-pyrazol-4-yl)-1H-pyrazolo[4,3-d]pyrimidin-5-yl)-3,8-diazabicyclo[3.2.1]octan-2-one]: the negative-log IC50 (pIC50) against FGFR1 was 6.30 to 7.00; against FGFR3 it was 6.30 to 7.00; in the test on RT112 cells, 6.30 to 7.00; on FGFR2 (P) it was over 7.00; on FGFR3 (UP) it was over 7.00; on FGFR1 (UP) it was 6.30 to 7.00.
For the compound `c1ccc2c(-c3cnn4cc(-c5ccc(N6CCNCC6)cc5)cnc34)ccnc2c1` [LDN-19318917], in the test with ALK2 mutant DIPG cell, the “inhibition of ALK2 mutant DIPG cell viability” value is reported as “significant inhibition”.
For the compound `CN1CC2CCC(C1=O)N2c1ncc2[nH]nc(-c3cnn(C)c3)c2n1` (centres unmarked) [Example 49, 3-Methyl-8-(3-(1-methyl-1H-pyrazol-4-yl)-1H-pyrazolo[4,3-d]pyrimidin-5-yl)-3,8-diazabicyclo[3.2.1]octan-2-one], the pIC50 against ALK2 (aa 147-end) (ALK2 3 μM IC50, 3 uM ATP) was 5.70 to 6.30; at ALK2 (aa 147-end) (setting [1]), under 5.70; at FGFR1 (setting [4]) it was 5.70 to 6.30; at FGFR3 it was over 7.00; with RT112 cells it was 6.30 to 7.00; on FGFR2 (P), over 7.00. For the same compound, the pIC50 on FGFR3 (UP), at FGFR1 (UP) (setting [3]) and at FGFR2 (UP) was over 7.00 in each case.
With `CN1CC2CCC(C1=O)N2c1ncc2[nH]nc(-c3cnn(-c4ccc(C#N)cc4)c3)c2n1` (centres unmarked) [Example 70, 4-(4-(5-(3-Methyl-2-oxo-3,8-diazabicyclo[3.2.1]octan-8-yl)-1H-pyrazolo[4,3-d]pyrimidin-3-yl)-1H-pyrazol-1-yl)benzonitrile], the pIC50 at ALK2 (aa 147-end) (ALK2 3 μM IC50, 3 uM ATP) is 5.70 to 6.30; at ALK2 (aa 147-end) (setting [1]), under 5.70; on FGFR2 (setting [2]), over 7.00; against FGFR3, over 7.00; with RT112 cells, over 7.00; at FGFR2 (P), over 7.00. Also, the pIC50 at FGFR3 (UP), at FGFR1 (UP) (setting [3]) and on FGFR2 (UP) was over 7.00 each time.
For `CN1CC2CCC(C1=O)N2c1ncc2[nH]nc(-c3cnn(-c4ccc(N(C)C)nc4)c3)c2n1` (centres unmarked) [Example 72, 8-(3-(1-(6-(Dimethylamino)pyridin-3-yl)-1H-pyrazol-4-yl)-1H-pyrazolo[4,3-d]pyrimidin-5-yl)-3-methyl-3,8-diazabicyclo[3.2.1]octan-2-one], the pIC50 against ALK2 (aa 147-end) (ALK2 3 μM IC50, 3 uM ATP) was 5.70 to 6.30; against ALK2 (aa 147-end) (ALK2 100 μM IC50, 100 uM ATP), 5.70 to 6.30; on FGFR2 (setting [2]), over 7.00; against FGFR3 it was over 7.00; in the test on RT112 cells, 6.30 to 7.00; on FGFR2 (P), over 7.00. Also, the pIC50 on FGFR3 (UP), on FGFR1 (UP) (setting [3]) and on FGFR2 (UP) was over 7.00 throughout.
